# From patent EP0677522A1, “8-METHOXYQUINOLONECARBOXYLIC ACID DERIVATIVE” (priority 1992, dated 1994)
# Assays:
# [1] = test system: E. coli KC-14; assay: Protection of mice from experimental infection; type: in vivo; settings: Table 3-2: male mice; intraperitoneal inoculation (744×LD₅₀); oral administration one hour after inoculation; survival ratio at 7 days
# Method: (§1) Experimental infection was caused by intraperitoneal inoculation of respective bacteria to male mice. One hour after the inoculation, a test compound was orally administered to the mice. The therapeutic effect of each test compound was evaluated by reference to the 50% effective dose (ED₅₀) which was based on the survival ratio at 7 days after the administration according to the probit method [Proc. Soc. Exp. Med., Vol. 57, p 261-264 (1944)]. The minimum inhibitory concentration (MIC) of the infectious bacteria used was also determined. […]
# [2] = test system: S. aureus MRSA Y-238; assay: Protection of mice from experimental infection; type: in vivo; settings: Table 3-2: male mice; intraperitoneal inoculation 7.5×10⁵ cells/mouse (185×LD₅₀); oral administration one hour after inoculation; survival ratio at 7 days
# Method: as §1
# [3] = test system: S. aureus Smith; assay: Protection of mice from experimental infection; type: in vivo; settings: male mice; intraperitoneal inoculation 2.8×10⁶ cells/mouse (123×LD₅₀); oral administration one hour after inoculation; survival ratio at 7 days, probit method
# Method: as §1
# [4] = test system: B. fragilis BFY-18; assay: Antibacterial effect against specific bacteria (MIC); type: cell-based; settings: Bacteroides fragilis, BFY18; same manner as Experimental Example 1
# Method: (§2) The in vitro antibacterial activity (minimum inhibitory concentration, MIC, µg/ml) of the test compounds was determined according to Japan Society of Chemotherapy Standard [Chemotherapy, vol. 29, pp 76-79 (1981)].
# (§3) In the same manner as in Experimental Example 1, the antibacterial effect against specific bacteria such as Chlamydia, Mycoplasma and acid-fast bacteria and anaerobic bacteria was determined.
# [5] = test system: Mycobacterium smegmatis IFO 3153; assay: as above; type: cell-based; settings: Mycolicibacterium smegmatis, IFO3153; same manner as Experimental Example 1
# Method: as §2, §3
# [6] = test system: Mycoplasma pneumoniae ATCC 29343; assay: as above; type: cell-based; settings: ATCC29343, same manner as Experimental Example 1
# Method: as §2, §3
# [7] = test system: Chlamydia trachomatis D/UW-3Cx; assay: as above; type: cell-based; settings: same manner as Experimental Example 1
# Method: as §2, §3
# [8] = test system: Ureaplasma urealyticum ATCC 27618; assay: as above; type: cell-based; settings: ATCC27618, same manner as Experimental Example 1
# Method: as §2, §3
# [9] = test system: E. avium EAY-30; assay: In vitro antibacterial activity (MIC), Japan Society of Chemotherapy Standard; type: cell-based; settings: Enterococcus avium, EAY30, inoculated cells 10⁶ cells/ml
# Method: as §2
# (§4) Inoculated cells were 10⁶ cells/ml and the strain with * was incubated in a medium supplemented with 10% horse blood. The mark "1)" means quinolone resistant MRSA and "2)" means quinolone resistant bacteria.
# [10] = test system: Enterobacter cloacae IFO 12937; assay: as above; type: cell-based; settings: IFO12937, inoculated cells 10⁶ cells/ml
# Method: as §2, §4
# [11] = test system: S. aureus No.88; assay: as above; type: cell-based; settings: Staphylococcus aureus; quinolone resistant MRSA; inoculated cells 10⁶ cells/ml
# Method: as §2, §4
# [12] = test system: Shigella flexneri EW-10; assay: as above; type: cell-based; settings: EW10, inoculated cells 10⁶ cells/ml
# Method: as §2, §4
# [13] = test system: Corynebacterium diphtheriae Tronto; assay: as above; type: cell-based; settings: inoculated cells 10⁶ cells/ml, medium supplemented with 10% horse blood
# Method: as §2, §4
# [14] = test system: Proteus vulgaris IFO 3988; assay: as above; type: cell-based; settings: IFO3988, inoculated cells 10⁶ cells/ml
# Method: as §2, §4
# [15] = test system: E. faecalis EFY-204; assay: as above; type: cell-based; settings: Enterococcus faecalis, EFY204; quinolone resistant bacteria; inoculated cells 10⁶ cells/ml
# Method: as §2, §4
# [16] = test system: Citrobacter freundii IFO 12681; assay: as above; type: cell-based; settings: IFO12681, inoculated cells 10⁶ cells/ml
# Method: as §2, §4
# [17] = test system: E. faecium EFMY-207; assay: as above; type: cell-based; settings: Enterococcus faecium, EFMY207; quinolone resistant bacteria; inoculated cells 10⁶ cells/ml
# Method: as §2, §4
# [18] = test system: Serratia marcescens IFO 12648; assay: as above; type: cell-based; settings: IFO12648, inoculated cells 10⁶ cells/ml
# Method: as §2, §4
# [19] = test system: S. viridans America; assay: as above; type: cell-based; settings: Streptococcus viridans; inoculated cells 10⁶ cells/ml; medium supplemented with 10% horse blood
# Method: as §2, §4
# [20] = test system: Pseudomonas aeruginosa IFO 12582; assay: as above; type: cell-based; settings: IFO12582, inoculated cells 10⁶ cells/ml
# Method: as §2, §4
# [21] = test system: Klebsiella pneumoniae DT; assay: as above; type: cell-based; settings: inoculated cells 10⁶ cells/ml
# Method: as §2, §4
# [22] = test system: S. epidermidis SEY-223; assay: as above; type: cell-based; settings: Staphylococcus epidermidis, SEY223; quinolone resistant bacteria; inoculated cells 10⁶ cells/ml
# Method: as §2, §4
# [23] = test system: Staphylococcus aureus FDA 209P; assay: as above; type: cell-based; settings: FDA209P, inoculated cells 10⁶ cells/ml
# Method: as §2, §4
# [24] = test system: Streptococcus pyogenes C-203; assay: as above; type: cell-based; settings: C203, inoculated cells 10⁶ cells/ml, medium supplemented with 10% horse blood
# Method: as §2, §4
# [25] = test system: Acinetobacter calcoaceticus ATCC 13006; assay: as above; type: cell-based; settings: ATCC13006, inoculated cells 10⁶ cells/ml
# Method: as §2, §4
# [26] = test system: E. faecium EFMY-28; assay: as above; type: cell-based; settings: Enterococcus faecium, EFMY28; inoculated cells 10⁶ cells/ml
# Method: as §2, §4
# [27] = test system: P. mirabilis IFO 3849; assay: as above; type: cell-based; settings: Proteus mirabilis, IFO3849; inoculated cells 10⁶ cells/ml
# Method: as §2, §4
# [28] = test system: Enterococcus faecalis LS-101; assay: as above; type: cell-based; settings: LS101, inoculated cells 10⁶ cells/ml
# Method: as §2, §4
# [29] = test system: S. pneumoniae Type-III; assay: as above; type: cell-based; settings: Streptococcus pneumoniae; inoculated cells 10⁶ cells/ml; medium supplemented with 10% horse blood
# Method: as §2, §4
# [30] = test system: Escherichia coli NIHJ JC-2; assay: as above; type: cell-based; settings: NIHJJC2, inoculated cells 10⁶ cells/ml
# Method: as §2, §4
# [31] = test system: S. epidermidis ATCC 12228; assay: as above; type: cell-based; settings: Staphylococcus epidermidis, ATCC12228; inoculated cells 10⁶ cells/ml
# Method: as §2, §4
# [32] = test system: E. coli KC-14; assay: MIC of the infectious bacteria used for experimental infection; type: cell-based; settings: Escherichia coli, KC14; infectious strain of the mouse protection test
# Method: as §2, §1
# [33] = test system: S. aureus MRSA Y-238; assay: as above; type: cell-based; settings: Staphylococcus aureus, infectious strain of the mouse protection test
# Method: as §2, §1
# [34] = test system: S. aureus Smith; assay: as above; type: cell-based; settings: Staphylococcus aureus; infectious strain of the mouse protection test
# Method: as §2, §1
smiles,measurement,setting,value
"COc1c(N2CC[C@@](CN)(CF)C2)c(F)cc2c(=O)c(C(=O)O)cn(C3CC3)c12 [Example 17, (S)-7-(3-aminomethyl-3-fluoromethylpyrrolidin-1-yl)-1-cyclopropyl-6-fluoro-1,4-dihydro-8-methoxy-4-oxo-3-quinolinecarboxylic acid]",ED₅₀ (mg/mouse) (95% confidence limit),[1],0.011(0.008-0.015) mg/mouse
same,ED₅₀ (mg/mouse) (95% confidence limit),[2],1.540(1.103-2.151) mg/mouse
same,ED₅₀ (mg/mouse) (95% confidence limit),[3],0.031(0.021-0.044) mg/mouse
same,MIC,[4],0.2 µg/mL
same,MIC,[5],0.1 µg/mL
same,MIC,[6],0.1 µg/mL
same,MIC,[7],0.025 µg/mL
same,MIC,[8],0.39 µg/mL
same,MIC,[9],0.2 µg/mL
same,MIC,[10],0.39 µg/mL
same,MIC,[11],0.78 µg/mL
same,MIC,[12],0.025 µg/mL
same,MIC,[13],0.025 µg/mL
same,MIC,[14],0.78 µg/mL
same,MIC,[15],1.56 µg/mL
same,MIC,[16],0.2 µg/mL
same,MIC,[17],3.13 µg/mL
same,MIC,[18],0.39 µg/mL
same,MIC,[19],0.1 µg/mL
same,MIC,[20],1.56 µg/mL
same,MIC,[21],0.05 µg/mL
same,MIC,[22],0.78 µg/mL
same,MIC,[23],0.012 µg/mL
same,MIC,[24],0.1 µg/mL
same,MIC,[25],0.1 µg/mL
same,MIC,[26],0.39 µg/mL
same,MIC,[27],0.78 µg/mL
same,MIC,[28],0.025 µg/mL
same,MIC,[29],0.05 µg/mL
same,MIC,[30],0.1 µg/mL
same,MIC,[31],0.025 µg/mL
same,MIC,[32],0.025 µg/mL
same,MIC,[33],0.39 µg/mL
same,MIC,[34],≤ 0.006 µg/mL
